One assay deals with T1, human topoisomerase I (Homo sapiens, UniProt P11387).
T1 construct: purchased Invitrogen Inc
T1 sequence (P11387 1-765): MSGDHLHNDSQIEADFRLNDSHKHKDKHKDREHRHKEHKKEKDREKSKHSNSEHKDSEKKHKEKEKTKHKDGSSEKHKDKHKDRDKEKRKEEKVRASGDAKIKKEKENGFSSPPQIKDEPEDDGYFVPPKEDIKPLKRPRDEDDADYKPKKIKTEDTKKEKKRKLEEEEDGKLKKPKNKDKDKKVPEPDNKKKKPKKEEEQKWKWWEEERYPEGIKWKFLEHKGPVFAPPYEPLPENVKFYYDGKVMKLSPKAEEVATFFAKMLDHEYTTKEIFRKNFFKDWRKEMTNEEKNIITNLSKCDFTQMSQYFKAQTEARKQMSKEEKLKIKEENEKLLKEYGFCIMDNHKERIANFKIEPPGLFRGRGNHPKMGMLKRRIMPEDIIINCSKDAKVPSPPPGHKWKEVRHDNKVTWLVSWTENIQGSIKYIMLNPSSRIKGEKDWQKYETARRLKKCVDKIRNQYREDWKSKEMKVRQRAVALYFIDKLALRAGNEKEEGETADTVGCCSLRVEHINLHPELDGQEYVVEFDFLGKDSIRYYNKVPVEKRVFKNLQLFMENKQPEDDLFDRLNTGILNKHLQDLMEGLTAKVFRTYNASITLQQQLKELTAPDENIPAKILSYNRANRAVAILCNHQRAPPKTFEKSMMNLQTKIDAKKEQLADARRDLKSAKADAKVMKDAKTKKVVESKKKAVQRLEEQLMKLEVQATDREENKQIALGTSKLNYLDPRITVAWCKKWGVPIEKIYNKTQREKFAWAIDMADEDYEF
In words: Topoisomerase I DNA cleavage test on radiolabelled duplex. The format is biochemical. As to conditions: in vitro, free inhibitors.

For assay [1], the target named is T2, DNA/topo I cleavage complexes (Homo sapiens, UniProt P11387).
T2 construct: HeLa nucleus cells (5000000) were prepared and incubated 3 h at 37° C. with the topoisomerase I poison; endogenous in cells; host or cells: HeLa nuclei
T2 sequence (P11387 1-765): T1 sequence (P11387 1-765)
The assay can be described thus: Formation of DNA/topo I cleavage complexes in HeLa nuclei followed by immunoblot (CsCl gradient, Western slot blot). The format is cell-based. As to conditions: 3 h at 37° C., 5 μM (FIG. 8). As to the method: FIG. 8 gives correlation results of the biological effects with the formation of DNA/topo I/CPT complexes: the formation of the complexes in the cells was followed by immunoblot.
In the experiments corresponding to FIG. 8, HeLa nucleus cells (5000000) were prepared and incubated 3 h at 37° C. with the topoisomerase I poison free (CPT or ST1578) or coupled to oligonucleotide (TFO-L4-10CPT or TFO-ST1578 or LNA-ST1578), or with a control oligonucleotide (TFO-NH2 or TFO-NPh2) at various concentration (in FIG. 8 at 5 μM). After adding of sarkosyl, the lysates were ultracentrifugated 16 h on a gradient of CsCl. 12 fractions were recovered and analysed by Western slot blot to show the fractions containing topoisomerase I (in 1-4 for the untreated control (mock)).
The fractions containing the DNA were identified by measuring absorbance at 260 nm (fractions 8-10).

SMILES strings stand for the structures.

Experimental for human topoisomerase I: The radiolabelled 324-bp duplex in position 3′ on the oligopyrimidine strand (well 1) was incubated with topoisomerase I in the presence of three camptothecin derivatives (wells 2-4, 10CPT, 7CPT, SCPT), or of these three derivatives conjugated with TFO 16 (wells 5-7, TFO16-L4-10CPT, TFO16-L6-CPT, TFO16-L3-SCPT). The cleavage sites are indicated by letters and the binding site of the conjugate is shown diagrammatically. L3=diaminopropynyl; L4=diaminobutyl, L6=diaminohexyl; after incubation, the protein is digested by a treatment with SDS/proteinase K and the cleavage products are analysed on a denaturating gel;
The radiolabelled duplexes (50 nM) are incubated for 1 hour at 30° C., in 50 mM. […] After ethanol precipitation, all the samples are re-suspended in 6 μl of formamide, heated to 90° C. for 4 minutes and cooled again on ice for 4 mins, before being deposited on 8% and 10% denaturing polyacrylamide gel [19/1 acrylamide:bisacrylamide], for the long and short targets respectively, containing 7.5 M urea in 1× TBE buffer (50 mM Tris-HCl, 55 mM boric acid, 1 Mm EDTA), In order to quantify the cleavage intensity, the gels are scanned with a Dynamics 445SI Phosphorimager. […]
The cleavage specificity of the conjugates was measured in vitro by a standard topoisomerase I cleavage test. […]

In the case of `CC[C@@]1(O)C(=O)OCc2c1cc1n(c2=O)Cc2cc3cc(C(=O)O)ccc3nc2-1` [10-carboxycamptothecin, 20S-10-carboxycamptothecin], the “stimulation of DNA cleavage by topoisomerase 1 compared with 7-aminoethyl-camptothecin” value on human topoisomerase I is recorded as “more effectively”.

For `CC[C@@]1(O)C(=O)OCc2c1cc1n(c2=O)Cc2cc3ccccc3nc2-1` [CPT, camptothecin], in assay [1], the “fractions of the CsCl gradient containing topoisomerase I (stabilisation of DNA/topo I cleavage complexes)” value is “observed only in fractions containing DNA”.

Regarding `CC[C@@]1(O)C(=O)OCc2c1cc1n(c2=O)Cc2c-1nc1ccccc1c2C=NCCN` [ST1578, 20S-7-aminoethyliminomethylcamptothecin], in assay [1], the “fractions of the CsCl gradient containing topoisomerase I (stabilisation of DNA/topo I cleavage complexes)” value was “observed only in fractions containing DNA”.

Source of the values: US20080108581A1, “Compounds and Their Use for Specific and Simultaneous Inhibition of Genes Involved In Diseases and Related Drugs” (INSTITUT NATIONAL DE LA SANTE ET DE LA RECHERCHE MEDICAL …, priority 2003, published 2008).
